Data as given in the NIST ThermoML archive (doi:10.1021/acs.jced.7b00773).

Details: Liquid; for viscosity: Concentric cylinders viscometry

CCn1cc[n+](C)c1.N#C[B-](C#N)(C#N)C#N [1-ethyl-3-methylimidazolium tetracyanoborate]
100 kPa
Details | viscosity [mPa·s]
293.15 K | 22.11
303.15 K | 15.38
313.15 K | 11.23
323.15 K | 8.55
333.15 K | 6.751
343.15 K | 5.473

Details | mass density [kg/m3]
293.15 K, 100 kPa, Vibrating tube method | 1040.5
303.15 K, 100 kPa, Vibrating tube method | 1032.7
311.8 K, 10000 kPa, Bellows volumetry | 1031.2
311.8 K, 20000 kPa, Bellows volumetry | 1036.6
311.8 K, 30000 kPa, Bellows volumetry | 1041.7
311.8 K, 40000 kPa, Bellows volumetry | 1046.6
311.8 K, 50000 kPa, Bellows volumetry | 1051.3
311.8 K, 60000 kPa, Bellows volumetry | 1055.9
311.8 K, 70000 kPa, Bellows volumetry | 1060.3
311.8 K, 80000 kPa, Bellows volumetry | 1064.6
311.8 K, 90000 kPa, Bellows volumetry | 1068.7
311.8 K, 100000 kPa, Bellows volumetry | 1072.8
311.8 K, 110000 kPa, Bellows volumetry | 1076.8
311.8 K, 120000 kPa, Bellows volumetry | 1080.6
311.8 K, 130000 kPa, Bellows volumetry | 1084.3
311.8 K, 140000 kPa, Bellows volumetry | 1088
311.8 K, 150000 kPa, Bellows volumetry | 1091.6
311.8 K, 160000 kPa, Bellows volumetry | 1095.1
311.8 K, 170000 kPa, Bellows volumetry | 1098.5
311.8 K, 180000 kPa, Bellows volumetry | 1101.9
311.8 K, 190000 kPa, Bellows volumetry | 1105.1
311.8 K, 200000 kPa, Bellows volumetry | 1108.5
313.15 K, 100 kPa, Vibrating tube method | 1024.9
323.15 K, 100 kPa, Vibrating tube method | 1017.2
331.7 K, 10000 kPa, Bellows volumetry | 1016.3
331.7 K, 20000 kPa, Bellows volumetry | 1021.9
331.7 K, 30000 kPa, Bellows volumetry | 1027.4
331.7 K, 40000 kPa, Bellows volumetry | 1032.6
331.7 K, 50000 kPa, Bellows volumetry | 1037.5
331.7 K, 60000 kPa, Bellows volumetry | 1042.3
331.7 K, 70000 kPa, Bellows volumetry | 1046.9
331.7 K, 80000 kPa, Bellows volumetry | 1051.4
331.7 K, 90000 kPa, Bellows volumetry | 1055.7
331.7 K, 100000 kPa, Bellows volumetry | 1059.9
331.7 K, 110000 kPa, Bellows volumetry | 1064
331.7 K, 120000 kPa, Bellows volumetry | 1068
331.7 K, 130000 kPa, Bellows volumetry | 1071.9
331.7 K, 140000 kPa, Bellows volumetry | 1075.6
331.7 K, 150000 kPa, Bellows volumetry | 1079.2
331.7 K, 160000 kPa, Bellows volumetry | 1082.9
331.7 K, 170000 kPa, Bellows volumetry | 1086.4
331.7 K, 180000 kPa, Bellows volumetry | 1089.9
331.7 K, 190000 kPa, Bellows volumetry | 1093.3
331.7 K, 200000 kPa, Bellows volumetry | 1096.7
333.15 K, 100 kPa, Vibrating tube method | 1009.6
343.15 K, 100 kPa, Vibrating tube method | 1002
351.8 K, 10000 kPa, Bellows volumetry | 1001.6
351.8 K, 20000 kPa, Bellows volumetry | 1007.5
351.8 K, 30000 kPa, Bellows volumetry | 1013.3
351.8 K, 40000 kPa, Bellows volumetry | 1018.7
351.8 K, 50000 kPa, Bellows volumetry | 1024
351.8 K, 60000 kPa, Bellows volumetry | 1029
351.8 K, 70000 kPa, Bellows volumetry | 1033.8
351.8 K, 80000 kPa, Bellows volumetry | 1038.5
351.8 K, 90000 kPa, Bellows volumetry | 1043
351.8 K, 100000 kPa, Bellows volumetry | 1047.3
351.8 K, 110000 kPa, Bellows volumetry | 1051.5
351.8 K, 120000 kPa, Bellows volumetry | 1055.7
351.8 K, 130000 kPa, Bellows volumetry | 1059.7
351.8 K, 140000 kPa, Bellows volumetry | 1063.6
351.8 K, 150000 kPa, Bellows volumetry | 1067.4
351.8 K, 160000 kPa, Bellows volumetry | 1071.2
351.8 K, 170000 kPa, Bellows volumetry | 1074.8
